For this assay, the target named is T1, STAT1 (Homo sapiens, UniProt P42224).
T1 construct: endogenous in cells; host or cells: U251
Kind of assay: Immunoprecipitation and Western blotting, STAT1. The assay is classed as binding. As to conditions: immunoprecipitation, Western blotting, U251 cells. The text has this: Figure 2 PS-acet.-STAT3-peptide specifically binds STAT3 in the nucleus. (A) Penetration of PS-acet.-STAT3 peptide and its colocalization with STAT3 protein in U251 cells are confirmed by confocal microscopy. Scale bars: 50 μm. Insets: original magnification, ×40. (B) PS-acet.-STAT3 peptide specifically binds to STAT3 protein, not STAT1 and STAT5 proteins, shown in U251 cells by immunoprecipitation followed by Western blotting (left panel). Expression of total STAT1, STAT3, and STAT5 was confirmed by Western blotting in U251 cells (input protein level, right panel).
Whole cell lysates or tissue homogenates were prepared by using RIPA lysis buffer (50 mM Tris at pH 7.4, 150 mM NaCl, 1 mM EDTA, 0.5% NP-40, 1 mM NaF, 15% glycerol, and 20 mM β-glycerophosphate). […] Protein amounts were determined by BCA using a Thermo Fisher Scientific kit. […] The protein levels for STAT1 (sc-346, E-23), STAT3 (sc-482, C-20), STAT5 (sc-74442, A-9), Crm1 (exportin 1) (sc-5595, H-300), CAS (exportin 2) (sc-271537, H-2), exportin 5 (sc-66885, H-300), and exportin 7 (sc-98639, H-82) were determined using antibodies from Santa Cruz Biotechnology Inc. Anti–exportin 3 (exportin T, 630622, LOS1 05-1525), anti–exportin 4 (3499-1), and anti–exportin 6 (11408-1-AP) were from MilliporeSigma, Epitomics, and Proteintech, respectively. […]

T1 sequence (P42224 whole entry): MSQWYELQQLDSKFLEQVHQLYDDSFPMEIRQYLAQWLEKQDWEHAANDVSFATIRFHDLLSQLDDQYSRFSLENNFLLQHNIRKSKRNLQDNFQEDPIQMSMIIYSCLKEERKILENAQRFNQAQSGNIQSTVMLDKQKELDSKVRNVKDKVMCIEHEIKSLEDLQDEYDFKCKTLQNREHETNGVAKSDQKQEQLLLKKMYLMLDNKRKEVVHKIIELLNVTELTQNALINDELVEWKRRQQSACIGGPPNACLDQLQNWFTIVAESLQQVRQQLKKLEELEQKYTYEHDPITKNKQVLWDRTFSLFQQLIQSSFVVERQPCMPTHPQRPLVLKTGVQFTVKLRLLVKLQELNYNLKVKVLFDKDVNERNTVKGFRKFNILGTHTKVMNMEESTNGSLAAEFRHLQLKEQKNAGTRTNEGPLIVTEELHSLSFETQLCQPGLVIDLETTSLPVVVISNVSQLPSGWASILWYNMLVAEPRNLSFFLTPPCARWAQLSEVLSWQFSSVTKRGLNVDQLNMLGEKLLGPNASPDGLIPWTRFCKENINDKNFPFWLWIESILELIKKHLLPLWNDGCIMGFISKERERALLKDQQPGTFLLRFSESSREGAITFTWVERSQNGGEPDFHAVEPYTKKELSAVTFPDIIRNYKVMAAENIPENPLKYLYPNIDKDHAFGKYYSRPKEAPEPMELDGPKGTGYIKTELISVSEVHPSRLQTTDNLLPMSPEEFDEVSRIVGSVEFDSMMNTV

With “PDIPKEEAFGK685(Ac)YCRPESQEHPC-linker-T*C*C*A*T*G*A*G*C*T*T*C*C*T*G*A*T*G*C*T [PS-acet.-STAT3 peptide]”, the “binding to STAT1 protein” value was “not”.

The record behind these values is PMC7934871 (JCI Insight, 2021).
